Measured values taken from US11643782B2, “Method for controlling growth of microorganisms and/or biofilms in an industrial process” (Kemira Oyj, priority 2017, dated 2023).

Legend:
Type in all cases: cell-based
[1] = tested on: Meiothermus silvanus biofilms; assay: Prevention of biofilm formation (96-microwell peg-lid plates, Crystal Violet staining); settings: for Biofilm quantity, Abs. at 595 nm / Biofilm reduction: 48 h contact time
Description: (§1) Pure cultures of Meiothermus silvanus, a microbe species commonly found in paper machine biofilms (Ekman J, Journal of Industrial Microbiology & Biotechnology 34:203-211) and Pseudoxanthomonas taiwanensis, another species commonly found in paper machine environments (Desjardins, E & Beaulieu, C, Journal of Industrial Microbiology & Biotechnology 30:141-145) were used to study the efficacy of various chemicals to prevent biofilm formation.
(§2) Biofilm tests were done in either synthetic commercial R2-broth (Lab M Ltd, UK) or fibre-containing synthetic paper machine water, SPW (prepared according to Peltola, et al., J. Ind. Microbiol. Biotechnol. 2011, 38: 1719-1727) using 96-microwell plate wells with peg lids (Thermo Fischer Scientific Inc., USA). Plates were incubated at 45° C. with a rotary shaking (150 rpm) providing high flow in each well.
(§3) For experiments of preventing biofilm formation wells of 96-microwell plates with peg-lids were filled with R2-broth or SPW, inoculated with the pure bacterial cultures and treated with different amounts of chemical compounds to be tested. Peg-lid was put on. After 24 hours the wells were emptied and a fresh solution of pure culture containing SPW or R2 broth with different amounts of test chemicals were added to the wells and the original peg-lid was put back in place. After an additional 24 hours, i.e. 48 hours after starting the test, the wells were emptied, rinsed and the peg lid and wells were left to dry.
(§4) The amount of biofilm formed on the microwells and peg surfaces was quantified with a staining solution by adding 200 μl of 1% Crystal Violet (Merck Millipore KGaA, Germany) in methanol to each well and placing the peg-lid back on. After 3 minutes the wells were emptied and the wells and pegs were rinsed 3 times with tap water. The attached Crystal Violet was dissolved into ethanol and the absorbance at 595 nm was measured. The values shown in the following tables are average absorbance from 8 replicate wells and pegs.
(§5) All absorbance values in Examples 1-8 are given actual measured values. In calculation for biofilm reduction percentages it was taken in account that the SPW alone for 2 days without any bacterial inoculum gave a background value of 0.14.

[2] = tested on: Pseudoxanthomonas taiwanensis biofilms; assay: Removal of existing (preformed) biofilm (96-microwell peg-lid plates, Crystal Violet staining); settings: for Biofilm quantity, Abs. at 595 nm / Biofilm reduction: SPW, 45° C., 150 rpm, 24 h pre-growth and 24 h contact time; for Removal of already formed biofilms (in words): synthetic paper machine water, high temperature, fibres present, high flow
Description: as §1, §2
(§6) For experiments of removing already existing (preformed) biofilm wells of 96-microwell plates with peg-lids were filled with SPW, inoculated with the pure bacterial cultures. Biofilm was grown for 24 hours without addition of any chemical compound to be tested. In some experiments after 24 hours the procedure was repeated by emptying the wells and by addition of a fresh solution of SPW inoculated with pure bacterial culture, again without any test chemical compound. The original peg-lid was put back in place and biofilm was allowed to grow for additional 24 h, i.e. in total 48 h.
(§7) After 24 or 48 hours after starting the test, the wells were emptied and a fresh solution of SPW, inoculated with the pure bacterial cultures and with different amounts of chemical compounds to be tested were added and the original peg-lid was placed back in place. After an additional 2 or 24 hours the wells were emptied, rinsed and the peg lid and wells were left to dry.
as §4, §5

[3] = tested on: Meiothermus silvanus biofilms; assay: as above; settings: for Biofilm quantity, Abs. at 595 nm / Biofilm reduction: SPW, 45° C., 150 rpm, 24 h pre-growth and 24 h contact time
Description: as §1, §2, §6, §7, §4, §5

[4] = tested on: Pseudoxanthomonas taiwanensis biofilms; assay: Prevention of biofilm formation (96-microwell peg-lid plates, Crystal Violet staining); settings: for Biofilm quantity, Abs. at 595 nm / Biofilm reduction / Biofilm quantity, Abs at 595 nm: 48 h contact time
Description: as §1, §2, §3, §4, §5

[5] = Table 5, dosage 0.06 mg/l active compound, SPW, 45° C., 150 rpm
[6] = Table 5, dosage 0.2 mg/l active compound, SPW, 45° C., 150 rpm
[7] = Table 9, dosage 0.2 mg/l active compound
[8] = Table 9, dosage 0.4 mg/l active compound
[9] = Table 7, dosage 0.2 mg/l active compound
[10] = Table 7, dosage 0.6 mg/l active compound
[11] = Table 6, dosage 0.06 mg/l active compound, SPW, 45° C., 150 rpm
[12] = Table 6, dosage 0.2 mg/l active compound, SPW, 45° C., 150 rpm
[13] = dosage 0.2 mg/l active compound
[14] = dosage 0.6 mg/l active compound
[15] = active compound, synthetic paper machine water, high temperature, fibres present, high flow
[16] = dosage 0.2 mg/l active ingredient, SPW, 45° C., 150 rpm
[17] = dosage 0.6 mg/l active ingredient, SPW, 45° C., 150 rpm
[18] = dosage 1 mg/l active ingredient, SPW, 45° C., 150 rpm

`N#C/C=C/S(=O)(=O)c1ccccc1` [Compound C, (2E)-3-phenylsulphonyl-2-propenenitrile] was tested. Which “Biofilm quantity, Abs. at 595 nm” value [1, 5] did it give?
Its value is 0.64.

And the Biofilm reduction [1, 5]?
The Biofilm reduction was 29.7%.

What about the “Biofilm quantity, Abs. at 595 nm” value [1, 6] of the same molecule?
Its value is 0.15.

And the Biofilm reduction [1, 6]?
The Biofilm reduction was 98.2%.

And the “Biofilm quantity, Abs. at 595 nm” value [2, 7]?
Its value is 0.15.

What about the Biofilm reduction [2, 7] of the same molecule?
Its Biofilm reduction is 98.5%.

What about the “Biofilm quantity, Abs. at 595 nm” value [2, 8] of the same molecule?
Its value is 0.15.

And the Biofilm reduction [2, 8]?
Its Biofilm reduction is 99.0%.

And the “Removal of already formed biofilms (in words)” value (from here on “Removal”) [2]?
The value was “remove already formed biofilms”.

With `Cc1cc(C)c(S(=O)(=O)/C=C/C#N)c(C)c1` [Compound D, (2E)-3-[(2,4,6-trimethylphenyl)sulphonyl]-2-propenenitrile] as the molecule, how does the “Biofilm quantity, Abs. at 595 nm” value [2, 9] read?
Its value is 2.07.

What about the Biofilm reduction [2, 9] of the same molecule?
Its Biofilm reduction is 8.4%.

What about the “Biofilm quantity, Abs. at 595 nm” value [2, 10] of the same molecule?
The value was 0.18.

What about the Biofilm reduction [2, 10] of the same molecule?
Its Biofilm reduction is 97.9%.

What about the “Removal” value [2] of the same molecule?
The value was “remove already formed biofilms”.

Which “Biofilm quantity, Abs. at 595 nm” value [1, 11] does the source give for `N#C/C=C/S(=O)(=O)c1ccc(C(F)(F)F)cc1` [Compound E, (2E)-3-[(4-trifluormethylphenyl)sulphonyl]-2-propenenitrile] here?
Its value is 1.43.

What about the Biofilm reduction [1, 11] of the same molecule?
The Biofilm reduction was 38.8%.

What about the “Biofilm quantity, Abs. at 595 nm” value [1, 12] of the same molecule?
The value was 0.14.

And the Biofilm reduction [1, 12]?
Its Biofilm reduction is 99.6%.

How did the “Biofilm quantity, Abs. at 595 nm” value [3, 13] turn out when `COc1ccc(S(=O)(=O)/C=C/C#N)cc1` [Compound F, (2E)-3-[(4-methoxyphenyl)sulphonyl]-2-propenenitrile] was run?
The value was 1.21.

And the Biofilm reduction [3, 13]?
The Biofilm reduction was 6.4%.

What about the “Biofilm quantity, Abs. at 595 nm” value [3, 14] of the same molecule?
The value was 0.86.

What about the Biofilm reduction [3, 14] of the same molecule?
Its Biofilm reduction is 37.3%.

What about the “Removal” value ([3]; synthetic paper machine water, high temperature, fibres present, high flow) of the same molecule?
Its value is “remove already formed biofilms”.

For `N#CC(Br)(Br)C(N)=O` [DBNPA, 2,2-dibromo-3-nitrilopropionamide], which “Dosage required to reach acceptable or noticable biofilm reduction efficacy” value [1, 15] is on record?
Its value is 1 mg/I.

What about the “Biofilm quantity, Abs. at 595 nm” value [1, 16] of the same molecule?
The value was 0.57.

What about the Biofilm reduction [1, 16] of the same molecule?
Its Biofilm reduction is 16.9%.

And the “Biofilm quantity, Abs. at 595 nm” value [1, 17]?
The value was 0.35.

What about the Biofilm reduction [1, 17] of the same molecule?
Its Biofilm reduction is 60.7%.

What about the “Biofilm quantity, Abs. at 595 nm” value [1, 18] of the same molecule?
Its value is 0.15.

What about the Biofilm reduction [1, 18] of the same molecule?
Its Biofilm reduction is 98.8%.

What about the “Dosage required to reach acceptable or noticable biofilm reduction efficacy” value [4, 15] of the same molecule?
The value was 1 mg/I.

What about the “Biofilm quantity, Abs. at 595 nm” value [4, 16] of the same molecule?
The value was 1.46.

And the Biofilm reduction [4, 16]?
Its Biofilm reduction is 12.6%.

What about the “Biofilm quantity, Abs. at 595 nm” value [4, 17] of the same molecule?
Its value is 1.23.

And the Biofilm reduction [4, 17]?
Its Biofilm reduction is 27.8%.

And the “Biofilm quantity, Abs. at 595 nm” value [4, 18]?
Its value is 0.14.

And the Biofilm reduction [4, 18]?
The Biofilm reduction was 99.9%.

Gramicidin was tested. Which “Biofilm quantity, Abs. at 595 nm” value ([1]; dosage 0.2 mg/l, R2-broth) did it give?
The value was 1.40.

And the Biofilm reduction ([1]; dosage 0.2 mg/l, R2-broth)?
Its Biofilm reduction is 13.7%.

What about the “Biofilm quantity, Abs. at 595 nm” value ([1]; dosage 0.2 mg/l, SPW) of the same molecule?
Its value is 1.33.

And the Biofilm reduction ([1]; dosage 0.2 mg/l, SPW)?
The Biofilm reduction was 2.5%.

And the “Biofilm quantity, Abs. at 595 nm” value ([1]; dosage 1 mg/l, R2-broth)?
The value was 0.66.

What about the Biofilm reduction ([1]; dosage 1 mg/l, R2-broth) of the same molecule?
Its Biofilm reduction is 64.4%.

What about the “Biofilm quantity, Abs. at 595 nm” value ([1]; dosage 1 mg/l, SPW) of the same molecule?
Its value is 1.41.

What about the Biofilm reduction ([1]; dosage 1 mg/l, SPW) of the same molecule?
Its Biofilm reduction is −4.1%.

What about the “Biofilm quantity, Abs. at 595 nm” value ([1]; dosage 3 mg/l, R2-broth) of the same molecule?
Its value is 0.17.

And the Biofilm reduction ([1]; dosage 3 mg/l, R2-broth)?
Its Biofilm reduction is 97.9%.

What about the “Biofilm quantity, Abs. at 595 nm” value ([1]; dosage 3 mg/l, SPW) of the same molecule?
Its value is 0.45.

And the Biofilm reduction ([1]; dosage 3 mg/l, SPW)?
The Biofilm reduction was 74.6%.

And the “Biofilm quantity, Abs. at 595 nm” value ([1]; dosage 10 mg/l, R2-broth)?
Its value is 0.14.

What about the Biofilm reduction ([1]; dosage 10 mg/l, R2-broth) of the same molecule?
The Biofilm reduction was 100.0%.

And the “Biofilm quantity, Abs. at 595 nm” value ([1]; dosage 10 mg/l, SPW)?
Its value is 0.19.

And the Biofilm reduction ([1]; dosage 10 mg/l, SPW)?
Its Biofilm reduction is 95.9%.

What about the “Biofilm quantity, Abs. at 595 nm” value ([4]; dosage 3 mg/l, R2-broth) of the same molecule?
The value was 2.80.

And the Biofilm reduction ([4]; dosage 3 mg/l, R2-broth)?
The Biofilm reduction was −0.8%.

And the “Biofilm quantity, Abs at 595 nm” value ([4]; dosage 3 mg/l, SPW)?
The value was 2.25.

And the Biofilm reduction ([4]; dosage 3 mg/l, SPW)?
Its Biofilm reduction is 5.4%.

And the “Biofilm quantity, Abs. at 595 nm” value ([4]; dosage 10 mg/l, R2-broth)?
Its value is 2.55.

And the Biofilm reduction ([4]; dosage 10 mg/l, R2-broth)?
The Biofilm reduction was 8.7%.

And the “Biofilm quantity, Abs at 595 nm” value ([4]; dosage 10 mg/l, SPW)?
Its value is 2.41.

What about the Biofilm reduction ([4]; dosage 10 mg/l, SPW) of the same molecule?
Its Biofilm reduction is −1.8%.

And the “Biofilm quantity, Abs. at 595 nm” value ([4]; dosage 25 mg/l, R2-broth)?
The value was 0.19.

What about the Biofilm reduction ([4]; dosage 25 mg/l, R2-broth) of the same molecule?
The Biofilm reduction was 98.1%.

And the “Biofilm quantity, Abs at 595 nm” value ([4]; dosage 25 mg/l, SPW)?
The value was 2.42.

What about the Biofilm reduction ([4]; dosage 25 mg/l, SPW) of the same molecule?
The Biofilm reduction was −2.2%.
